Assay results as given in patent US6232450A, “Inhibition of human fucosyltransferases with N-linked Lewis-x and LacNAc analogs” (The Scripps Research Institute, priority 1999, dated 2001).

Experiments:
FucT V = molecular target: T1, FucT V (Homo sapiens, UniProt Q11128); assay: Test whether inhibitor is a slow substrate or an inactivator of FucT V (pre-incubation, then GDP-[U-14C]-fucose transfer); type: biochemical; conditions: 0.010 mM inhibitor, 2.1 munits FucT V, 0.30 mM LacNAc-b-O-(CH2)5CO2CH3, 10 mM MnCl2, 100 mM MES pH 6.0, incubation 0-80 min at room temperature
T1 sequence (Q11128 1-374): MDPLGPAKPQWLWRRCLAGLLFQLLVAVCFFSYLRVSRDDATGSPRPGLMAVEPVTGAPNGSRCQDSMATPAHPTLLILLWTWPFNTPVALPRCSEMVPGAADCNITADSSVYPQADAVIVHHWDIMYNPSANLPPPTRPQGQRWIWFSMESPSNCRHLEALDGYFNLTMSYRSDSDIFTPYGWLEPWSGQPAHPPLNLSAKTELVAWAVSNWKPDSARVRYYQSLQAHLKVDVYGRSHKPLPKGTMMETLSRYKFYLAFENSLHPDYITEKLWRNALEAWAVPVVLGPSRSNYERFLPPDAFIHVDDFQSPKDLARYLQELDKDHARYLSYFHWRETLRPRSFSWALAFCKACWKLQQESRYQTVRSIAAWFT
Description: A 0.350 mL solution that contained 10 mM MnCl2, 2.1 munits FucT V, 0.30 mM LacNAc-b-O-(CH2)5 CO2 CH3, 0.010 mM inhibitor (7a, 7b, 7c, 8a, 8b, or 8c), and 100 mM MES (pH 6.0). This solution was subject to incubation at room temperature for various time periods (0, 3, 10, 20, 30, 60, 80 min). After the incubation time, a 0.050 mL aliquot was removed and GDP-[U-^14 C]-fucose was added to a final concentration of 0.050 mM to initiate the fucosyltransfer reaction. After a 30 minute reaction time period, the solution was passed through a Dowex 1 column and the amount of product determined.

[1] = known from literature (Hanozet et al.); cited from earlier work

SMILES | slow substrate or inactivator of FucT V (FucT V) | pKa [1]
CCCO[C@@H]1O[C@H](CO)[C@@H](O)[C@H](N(C)CCN2[C@H](CO)[C@@H](O)[C@H](O)[C@H](O)[C@@H]2C)[C@H]1NC(C)=O [7b] | not a slow substrate or an inactivator | 
CCCO[C@@H]1O[C@H](CO)[C@@H](O)[C@H](NCCN2[C@H](CO)[C@@H](O)[C@H](O)[C@H](O)[C@@H]2C)[C@H]1NC(C)=O [7c] | not a slow substrate or an inactivator | 
C[C@@H]1N[C@H](COCc2ccccc2)[C@@H](OCc2ccccc2)[C@H](OCc2ccccc2)[C@@H]1OCc1ccccc1 [compound 5] |  | unusually low

Second part, led by results:

slow substrate or inactivator of FucT V (FucT V) | SMILES | pKa [1]
not a slow substrate or an inactivator | CCCO[C@@H]1O[C@H](COCc2ccccc2)[C@@H](O)[C@H](NCCN2[C@H](COCc3ccccc3)[C@@H](OCc3ccccc3)[C@H](OCc3ccccc3)[C@H](OCc3ccccc3)[C@@H]2C)[C@H]1NC(C)=O [7a] | 
not a slow substrate or an inactivator | CCCO[C@@H]1O[C@H](COCc2ccccc2)[C@@H](O[C@@H]2O[C@H](CO)[C@H](O)[C@H](O)[C@H]2O)[C@H](NCCN2[C@H](COCc3ccccc3)[C@@H](OCc3ccccc3)[C@H](OCc3ccccc3)[C@H](OCc3ccccc3)[C@@H]2C)[C@H]1NC(C)=O [8a] | 
not a slow substrate or an inactivator | CCCO[C@@H]1O[C@H](CO)[C@@H](O[C@@H]2O[C@H](CO)[C@H](O)[C@H](O)[C@H]2O)[C@H](N(C)CCN2[C@H](CO)[C@@H](O)[C@H](O)[C@H](O)[C@@H]2C)[C@H]1NC(C)=O [8b] | 
not a slow substrate or an inactivator | CCCO[C@@H]1O[C@H](CO)[C@@H](O[C@@H]2O[C@H](CO)[C@H](O)[C@H](O)[C@H]2O)[C@H](NCCN2[C@H](CO)[C@@H](O)[C@H](O)[C@H](O)[C@@H]2C)[C@H]1NC(C)=O [8c] | 
